Test results from the supplement of paper PMC10307832.

Compound: Cc1ccc(Nc2nccc(N(C)c3ccc4c(C)n(C)nc4c3)n2)cc1S(N)(=O)=O [Pazopanib] + CS(=O)(=O)CCNCc1ccc(-c2ccc3ncnc(Nc4ccc(OCc5cccc(F)c5)c(Cl)c4)c3c2)o1 [Lapatinib] (partner 2 µM)
Experiment: relative viability (nuclei count vs DMSO), 5 days (fraction); higher = more cells survive
Details: first compound 1 µM
Method in brief: (§1)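 Nuclei were stained with Hoechst during a one-step fixation (final 0.05% Triton X-100, 1% formaldehyde, 1 ug/ml Hoechst) carried out 5 days after dosing, then counted on 4× images. The cells, lung cancer lines in 1536-well plates, had been dosed by pin tool the day after seeding with one drug alone or a fixed anchor-drug dose plus five library-drug doses (not always all listed) in √10 steps. Relative viability is the nuclei count in treated wells divided by that in vehicle wells, and each value is the median of duplicate plates.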

Cell Line | relative viability
HCC-78 | 0.924
LCLC-97TM1 | 0.918
NCI-H2009 | 0.838
A-427 | 1.22
NCI-H460 | 1.15
NCI-H727 | 0.891
NCI-H1734 | 1.09
NCI-H520 | 0.921
NCI-H2405 | 1.2
SW 1573 | 1.41
NCI-H1793 | 0.852
201T | 1.06
NCI-H1915 | 0.941
HCC-827 | 0.191
LXF-289 | 0.897

Compound: Cc1ccc(C(=O)Nc2ccc(CN3CCN(C)CC3)c(C(F)(F)F)c2)cc1C#Cc1cnc2cccnn12 [Ponatinib] + CS(=O)(=O)N1CCN(Cc2cc3nc(-c4cccc5[nH]ncc45)nc(N4CCOCC4)c3s2)CC1 [Pictilisib] (partner 1 µM)
Experiment: as above
Details: first compound 0.002 µM
Method in brief: as §1

Cell Line | relative viability
Calu-6 | 0.92
HCC-366 | 0.149
NCI-H1666 | 0.534
NCI-H647 | 0.381
LK-2 | 0.589
NCI-H2087 | 0.879
H3255 | 0.466
COR-L23 | 0.768
COR-L 105 | 0.424
IA-LM | 0.428
LOU-NH91 | 0.554
NCI-H358 | 0.318
NCI-H3122 | 0.635
HOP-62 | 0.878
HCC-44 | 0.69
A549 | 0.527
LU99A | 0.303

Cell Line | relative viability
BEN | 0.544
HARA | 0.443
HCC-78 | 0.203
NCI-H2009 | 0.755
A-427 | 0.691
NCI-H460 | 0.383
NCI-H727 | 0.367
NCI-H1734 | 0.421
NCI-H520 | 0.253
NCI-H2405 | 0.388
SW 1573 | 0.489
NCI-H1793 | 0.335
201T | 0.649
NCI-H1915 | 0.892
HCC-827 | 0.952
LXF-289 | 0.737

Same assay, conditions: first compound 0.006325 µM

Cell Line | relative viability
Calu-6 | 0.87
HCC-366 | 0.101
NCI-H1666 | 0.436
NCI-H647 | 0.449
LK-2 | 0.555
NCI-H2087 | 0.831
NCI-H1395 | 0.696
H3255 | 0.478
COR-L23 | 0.753
COR-L 105 | 0.379
IA-LM | 0.386
LOU-NH91 | 0.567
NCI-H358 | 0.429
NCI-H3122 | 0.7
HOP-62 | 0.609
HCC-44 | 0.65
A549 | 0.645
LU99A | 0.335

Cell Line | relative viability
BEN | 0.62
HARA | 0.478
HCC-78 | 0.216
LCLC-97TM1 | 0.243
NCI-H2009 | 0.838
A-427 | 0.756
NCI-H460 | 0.441
NCI-H727 | 0.514
NCI-H1734 | 0.456
NCI-H520 | 0.248
NCI-H2405 | 0.574
SW 1573 | 0.515
NCI-H1793 | 0.344
201T | 0.685
NCI-H1915 | 0.98
HCC-827 | 1.13
LXF-289 | 0.795

Same assay, conditions: first compound 0.06325 µM

Cell Line | relative viability
Calu-6 | 0.928
HCC-366 | 0.146
NCI-H1666 | 0.48
NCI-H647 | 0.434
LK-2 | 0.411
NCI-H2087 | 0.933
NCI-H1395 | 0.657
H3255 | 0.456
COR-L23 | 1.04
COR-L 105 | 0.443
IA-LM | 0.572
LOU-NH91 | 0.512
NCI-H358 | 0.369
NCI-H3122 | 0.635
HOP-62 | 0.75
HCC-44 | 0.73
A549 | 0.608

Cell Line | relative viability
LU99A | 0.369
BEN | 0.601
HARA | 0.498
HCC-78 | 0.214
NCI-H2009 | 0.794
A-427 | 0.529
NCI-H460 | 0.469
NCI-H727 | 0.356
NCI-H1734 | 0.414
NCI-H520 | 0.259
NCI-H2405 | 0.497
SW 1573 | 0.526
NCI-H1793 | 0.206
201T | 0.801
NCI-H1915 | 1.03
HCC-827 | 0.899
LXF-289 | 0.883

Same assay, conditions: first compound 0.2 µM

Cell Line | relative viability
Calu-6 | 0.724
HCC-366 | 0.275
NCI-H1666 | 0.702
NCI-H647 | 0.376
LK-2 | 0.446
NCI-H2087 | 0.787
NCI-H1395 | 0.581
H3255 | 0.447
COR-L23 | 0.703
COR-L 105 | 0.567
IA-LM | 0.442
LOU-NH91 | 0.521
NCI-H358 | 0.331
NCI-H3122 | 0.73
HOP-62 | 0.665
HCC-44 | 0.628
A549 | 0.401
LU99A | 0.329

Cell Line | relative viability
BEN | 0.462
HARA | 0.296
HCC-78 | 0.232
LCLC-97TM1 | 0.221
NCI-H2009 | 0.625
A-427 | 0.531
NCI-H460 | 0.452
NCI-H727 | 0.333
NCI-H1734 | 0.365
NCI-H520 | 0.249
NCI-H2405 | 0.403
SW 1573 | 0.566
NCI-H1793 | 0.356
201T | 0.725
NCI-H1915 | 1.03
HCC-827 | 0.854
LXF-289 | 0.777

Compound: Cc1ccc(C(=O)Nc2ccc(CN3CCN(C)CC3)c(C(F)(F)F)c2)cc1C#Cc1cnc2cccnn12 [Ponatinib]
Experiment: relative viability (nuclei count vs DMSO), 5 days (fraction); higher = more cells survive
Details: 0.002 µM
Method in brief: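 Viability was defined as treated-well nuclei divided by vehicle-well nuclei, with the median taken over replicate plates. Cells from lung cancer lines sat overnight at 37 °C in 1536-well plates, received five √10-spaced library-drug doses by pinning on vehicle-anchored plates, and grew 5 days without medium change before one-step fixation, permeabilisation and Hoechst staining, 4× imaging and MetaXpress nuclear counts. Only plates with control CV under 25% and at least one doubling were kept.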

Cell Line | relative viability
Calu-6 | 0.987
HCC-366 | 1.03
NCI-H1666 | 0.919
